One test has as its target T1, rat α1B+α2b+β1b channels (N-type channels) (Rattus norvegicus, UniProt Q02294).
T1 construct: expressed in transfected cells
The experiment in a line: Block of α1B N-type channels, whole cell patch recordings (Example 6). The format is cell-based. As to conditions: 0.067 Hz; HEK 293, 5 mM barium as charge carrier; read-out: Block of α1B N-type Channels IC50, 0.067 Hz. As for the experimental part:
Antagonist activity was measured using whole cell patch recordings on human embryonic kidney cells either stably or transiently expressing rat α1B+α2b+β1b channels (N-type channels) with 5 mM barium as a charge carrier.
For transient expression, host cells, such as human embryonic kidney cells, HEK 293 (ATCC# CRL 1573) were grown in standard DMEM medium supplemented with 2 mM glutamine and 10% fetal bovine serum. HEK 293 cells were transfected by a standard calcium-phosphate-DNA coprecipitation method using the rat α1B+β1b+α2δ N-type calcium channel subunits in a vertebrate expression vector (for example, see Current Protocols in Molecular Biology).
After an incubation period of from 24 to 72 hrs the culture medium was removed and replaced with external recording solution (see below). Whole cell patch clamp experiments were performed using an Axopatch 200B amplifier (Axon Instruments, Burlingame, Calif.) linked to an IBM compatible personal computer equipped with pCLAMP software. Borosilicate glass patch pipettes (Sutter Instrument Co., Novato, Calif.) were polished (Microforge, Narishige, Japan) to a resistance of about 4 MΩ when filled with cesium methanesulfonate internal solution (composition in MM: 109 CsCH3SO4, 4 MgCl2, 9 EGTA, 9 HEPES, pH 7.2). Cells were bathed in 5 mM Ba^++ (in mM: 5 BaCl2, 1 MgCl2, 10 HEPES, 40 tetraethylammonium chloride, 10 glucose, 87.5 CsCl pH 7.2). […] Drugs were perfused directly into the vicinity of the cells using a microperfusion system.
Normalized dose-response curves were fit (Sigmaplot 4.0, SPSS Inc., Chicago, Ill.) by the Hill equation to determine IC50 values. Steady-state inactivation curves were plotted as the normalized test pulse amplitude following 5 s inactivating prepulses at +10 mV increments. Inactivation curves were fit (Sigmaplot 4.0) with the Boltzman equation, Ipeak (normalized)=1/(1+exp((V-Vh)z/25.6)), where V and Vh are the conditioning and half inactivation potentials, respectively, and z is the slope factor.
Using the procedure set forth above, various compounds of the invention were tested for their ability to block N-type calcium channels.
T1 sequence (Q02294 whole entry): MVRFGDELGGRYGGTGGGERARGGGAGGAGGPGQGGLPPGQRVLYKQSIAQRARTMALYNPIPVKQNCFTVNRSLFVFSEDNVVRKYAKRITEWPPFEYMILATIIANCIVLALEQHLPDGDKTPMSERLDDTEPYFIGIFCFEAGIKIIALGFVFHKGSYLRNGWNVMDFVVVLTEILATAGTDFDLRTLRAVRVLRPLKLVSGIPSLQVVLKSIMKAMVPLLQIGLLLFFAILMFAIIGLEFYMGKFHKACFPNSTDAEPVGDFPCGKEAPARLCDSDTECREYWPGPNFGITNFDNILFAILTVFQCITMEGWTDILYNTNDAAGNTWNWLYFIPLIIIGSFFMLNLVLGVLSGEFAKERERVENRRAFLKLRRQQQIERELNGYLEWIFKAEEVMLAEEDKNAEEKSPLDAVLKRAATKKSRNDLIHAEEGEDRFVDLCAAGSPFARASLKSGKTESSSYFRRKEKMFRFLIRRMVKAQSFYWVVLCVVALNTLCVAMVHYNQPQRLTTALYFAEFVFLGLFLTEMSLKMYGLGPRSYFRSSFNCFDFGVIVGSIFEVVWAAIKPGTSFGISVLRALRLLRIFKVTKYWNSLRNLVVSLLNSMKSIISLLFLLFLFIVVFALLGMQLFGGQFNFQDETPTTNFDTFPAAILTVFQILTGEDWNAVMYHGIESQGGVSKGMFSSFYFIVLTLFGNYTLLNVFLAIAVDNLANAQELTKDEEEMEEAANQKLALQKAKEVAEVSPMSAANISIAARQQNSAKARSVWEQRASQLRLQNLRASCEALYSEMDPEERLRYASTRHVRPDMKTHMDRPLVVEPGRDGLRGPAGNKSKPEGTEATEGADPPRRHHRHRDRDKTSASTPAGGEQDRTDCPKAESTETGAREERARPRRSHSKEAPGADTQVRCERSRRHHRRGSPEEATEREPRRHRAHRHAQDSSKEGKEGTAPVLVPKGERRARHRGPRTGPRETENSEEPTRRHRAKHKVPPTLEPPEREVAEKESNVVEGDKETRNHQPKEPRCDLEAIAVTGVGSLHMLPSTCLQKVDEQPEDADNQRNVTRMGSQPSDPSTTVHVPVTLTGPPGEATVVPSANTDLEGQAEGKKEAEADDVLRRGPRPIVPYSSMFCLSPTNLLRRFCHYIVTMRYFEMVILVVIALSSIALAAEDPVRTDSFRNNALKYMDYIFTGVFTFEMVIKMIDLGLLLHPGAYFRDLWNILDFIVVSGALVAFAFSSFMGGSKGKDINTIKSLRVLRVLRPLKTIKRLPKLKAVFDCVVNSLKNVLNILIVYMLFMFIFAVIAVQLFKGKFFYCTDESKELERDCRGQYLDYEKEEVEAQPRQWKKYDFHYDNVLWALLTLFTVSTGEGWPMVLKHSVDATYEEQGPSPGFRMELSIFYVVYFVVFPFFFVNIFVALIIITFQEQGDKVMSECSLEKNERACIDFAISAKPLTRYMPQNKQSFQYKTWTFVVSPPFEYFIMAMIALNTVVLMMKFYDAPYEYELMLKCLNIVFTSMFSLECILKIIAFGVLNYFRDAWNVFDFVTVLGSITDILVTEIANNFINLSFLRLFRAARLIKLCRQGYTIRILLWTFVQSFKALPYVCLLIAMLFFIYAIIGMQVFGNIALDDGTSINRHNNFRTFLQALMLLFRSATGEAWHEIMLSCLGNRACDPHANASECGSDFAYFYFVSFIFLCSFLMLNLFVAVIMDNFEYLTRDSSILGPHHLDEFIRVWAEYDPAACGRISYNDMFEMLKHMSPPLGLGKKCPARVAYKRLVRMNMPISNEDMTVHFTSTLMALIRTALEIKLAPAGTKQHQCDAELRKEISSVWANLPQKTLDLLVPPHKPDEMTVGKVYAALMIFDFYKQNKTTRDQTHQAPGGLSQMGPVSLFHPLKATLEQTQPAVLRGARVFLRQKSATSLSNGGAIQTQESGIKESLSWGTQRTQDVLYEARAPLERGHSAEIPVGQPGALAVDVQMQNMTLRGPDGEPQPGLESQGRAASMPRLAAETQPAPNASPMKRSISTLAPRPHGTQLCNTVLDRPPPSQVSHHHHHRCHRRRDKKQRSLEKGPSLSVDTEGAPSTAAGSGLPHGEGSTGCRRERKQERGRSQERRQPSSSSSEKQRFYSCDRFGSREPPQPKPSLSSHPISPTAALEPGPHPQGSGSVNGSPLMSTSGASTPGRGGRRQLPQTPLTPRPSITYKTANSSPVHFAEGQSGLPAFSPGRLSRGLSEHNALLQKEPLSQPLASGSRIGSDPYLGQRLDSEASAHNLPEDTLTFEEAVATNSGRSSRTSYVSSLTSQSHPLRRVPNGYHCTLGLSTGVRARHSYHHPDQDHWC
For orientation: IC50 means the concentration at which inhibition is half-maximal. `O=C(CC(c1ccccc1)c1ccccc1)N1CCN(C(c2ccccc2)c2cccc(Cl)c2)CC1` (stereo not shown) [Compound P36]: the IC50 is 114 nM.
On to `CCOC(=O)C1CN(C(c2ccccc2)c2ccccc2)CCN1C(=O)CC(c1ccccc1)c1ccccc1` (stereo not shown) [Compound P5], for which the IC50 was 160 nM.
As to `O=C(CC(c1ccccc1)c1ccccc1)N1CCN(C(c2ccccc2)c2ccc3c(c2)OCO3)CC1` (stereo not shown) [Compound P7], the IC50 is 213 nM.
The same measure, in the same setting: the same measure for `O=C(CC(c1ccccc1)c1ccccc1)N1CCN(C(c2ccccc2)c2ccc(C(F)(F)F)cc2)CC1` (stereo not shown) [Compound P1]: 100 nM; for `O=C(CC(c1ccccc1)c1ccccc1)N1CCN(C(c2ccccc2)c2cccc(C(F)(F)F)c2)CC1` (stereo not shown) [Compound P2]: 200 nM.

Staying with this test, now noted: 0.2 Hz; HEK 293, 5 mM barium as charge carrier; read-out: Block of α1B N-type Channels IC50, 0.2 Hz.
Turning to `O=C(CC(c1ccccc1)c1ccccc1)N1CCN(C(c2ccccc2)c2cccc(Cl)c2)CC1` (stereo not shown) [Compound P36], the IC50 turned out to be 44 nM.
As to `CCOC(=O)C1CN(C(c2ccccc2)c2ccccc2)CCN1C(=O)CC(c1ccccc1)c1ccccc1` (stereo not shown) [Compound P5], the IC50 was 120 nM.
As to `O=C(CC(c1ccccc1)c1ccccc1)N1CCN(C(c2ccccc2)c2ccc3c(c2)OCO3)CC1` (stereo not shown) [Compound P7], the IC50 turned out to be 137 nM.
Still for that read-out and setting: the figure for `O=C(CC(c1ccccc1)c1ccccc1)N1CCN(C(c2ccccc2)c2ccc(C(F)(F)F)cc2)CC1` (stereo not shown) [Compound P1] is 74 nM; for `O=C(CC(c1ccccc1)c1ccccc1)N1CCN(C(c2ccccc2)c2cccc(C(F)(F)F)c2)CC1` (stereo not shown) [Compound P2] it is 105 nM.

The subject of a further test is L-type channels (α1C+α2δ+β1b cDNA subunits). In words: Selectivity patch clamp, L-type channels in HEK 293 (Example 7). The format is cell-based. As to conditions: Tested at 0.1 Hz, 5 mM Ba2+. Background: In patch-clamp work, channel activity is measured electrically.
For the compound `O=C(CC(c1ccccc1)c1ccccc1)N1CCN(C(c2ccccc2)c2ccc(Cl)cc2Cl)CC1` (stereo not shown) [Compound P29], the IC50 stood at 126000 nM.
On the same count and under the same terms, the figure for `O=C(CC(c1ccccc1)c1ccccc1)N1CCN(C(c2ccccc2)c2cccc(Cl)c2)CC1` (stereo not shown) [Compound P36] is 8500 nM; for `CCOC(=O)C1CN(C(c2ccccc2)c2ccccc2)CCN1C(=O)CC(c1ccccc1)c1ccccc1` (stereo not shown) [Compound P5] it is 210000 nM; for `O=C(CC(c1ccccc1)c1ccccc1)N1CCN(C(c2ccccc2)c2ccc3c(c2)OCO3)CC1` (stereo not shown) [Compound P7] it is 15800 nM.
Same read-out and setting: the same measure for `O=C(CC(c1ccccc1)c1ccccc1)N1CCN(C(c2ccccc2)c2ccc(C(F)(F)F)cc2)CC1` (stereo not shown) [Compound P1]: 19600 nM; for `O=C(CC(c1ccccc1)c1ccccc1)N1CCN(C(c2ccccc2)c2cccc(C(F)(F)F)c2)CC1` (stereo not shown) [Compound P2]: 6600 nM.

For the next test, the target named is T2, human α1G subunits (T-type channels) (Homo sapiens, UniProt O43497).
T2 construct: expressed in transfected cells
T2 sequence (O43497 whole entry): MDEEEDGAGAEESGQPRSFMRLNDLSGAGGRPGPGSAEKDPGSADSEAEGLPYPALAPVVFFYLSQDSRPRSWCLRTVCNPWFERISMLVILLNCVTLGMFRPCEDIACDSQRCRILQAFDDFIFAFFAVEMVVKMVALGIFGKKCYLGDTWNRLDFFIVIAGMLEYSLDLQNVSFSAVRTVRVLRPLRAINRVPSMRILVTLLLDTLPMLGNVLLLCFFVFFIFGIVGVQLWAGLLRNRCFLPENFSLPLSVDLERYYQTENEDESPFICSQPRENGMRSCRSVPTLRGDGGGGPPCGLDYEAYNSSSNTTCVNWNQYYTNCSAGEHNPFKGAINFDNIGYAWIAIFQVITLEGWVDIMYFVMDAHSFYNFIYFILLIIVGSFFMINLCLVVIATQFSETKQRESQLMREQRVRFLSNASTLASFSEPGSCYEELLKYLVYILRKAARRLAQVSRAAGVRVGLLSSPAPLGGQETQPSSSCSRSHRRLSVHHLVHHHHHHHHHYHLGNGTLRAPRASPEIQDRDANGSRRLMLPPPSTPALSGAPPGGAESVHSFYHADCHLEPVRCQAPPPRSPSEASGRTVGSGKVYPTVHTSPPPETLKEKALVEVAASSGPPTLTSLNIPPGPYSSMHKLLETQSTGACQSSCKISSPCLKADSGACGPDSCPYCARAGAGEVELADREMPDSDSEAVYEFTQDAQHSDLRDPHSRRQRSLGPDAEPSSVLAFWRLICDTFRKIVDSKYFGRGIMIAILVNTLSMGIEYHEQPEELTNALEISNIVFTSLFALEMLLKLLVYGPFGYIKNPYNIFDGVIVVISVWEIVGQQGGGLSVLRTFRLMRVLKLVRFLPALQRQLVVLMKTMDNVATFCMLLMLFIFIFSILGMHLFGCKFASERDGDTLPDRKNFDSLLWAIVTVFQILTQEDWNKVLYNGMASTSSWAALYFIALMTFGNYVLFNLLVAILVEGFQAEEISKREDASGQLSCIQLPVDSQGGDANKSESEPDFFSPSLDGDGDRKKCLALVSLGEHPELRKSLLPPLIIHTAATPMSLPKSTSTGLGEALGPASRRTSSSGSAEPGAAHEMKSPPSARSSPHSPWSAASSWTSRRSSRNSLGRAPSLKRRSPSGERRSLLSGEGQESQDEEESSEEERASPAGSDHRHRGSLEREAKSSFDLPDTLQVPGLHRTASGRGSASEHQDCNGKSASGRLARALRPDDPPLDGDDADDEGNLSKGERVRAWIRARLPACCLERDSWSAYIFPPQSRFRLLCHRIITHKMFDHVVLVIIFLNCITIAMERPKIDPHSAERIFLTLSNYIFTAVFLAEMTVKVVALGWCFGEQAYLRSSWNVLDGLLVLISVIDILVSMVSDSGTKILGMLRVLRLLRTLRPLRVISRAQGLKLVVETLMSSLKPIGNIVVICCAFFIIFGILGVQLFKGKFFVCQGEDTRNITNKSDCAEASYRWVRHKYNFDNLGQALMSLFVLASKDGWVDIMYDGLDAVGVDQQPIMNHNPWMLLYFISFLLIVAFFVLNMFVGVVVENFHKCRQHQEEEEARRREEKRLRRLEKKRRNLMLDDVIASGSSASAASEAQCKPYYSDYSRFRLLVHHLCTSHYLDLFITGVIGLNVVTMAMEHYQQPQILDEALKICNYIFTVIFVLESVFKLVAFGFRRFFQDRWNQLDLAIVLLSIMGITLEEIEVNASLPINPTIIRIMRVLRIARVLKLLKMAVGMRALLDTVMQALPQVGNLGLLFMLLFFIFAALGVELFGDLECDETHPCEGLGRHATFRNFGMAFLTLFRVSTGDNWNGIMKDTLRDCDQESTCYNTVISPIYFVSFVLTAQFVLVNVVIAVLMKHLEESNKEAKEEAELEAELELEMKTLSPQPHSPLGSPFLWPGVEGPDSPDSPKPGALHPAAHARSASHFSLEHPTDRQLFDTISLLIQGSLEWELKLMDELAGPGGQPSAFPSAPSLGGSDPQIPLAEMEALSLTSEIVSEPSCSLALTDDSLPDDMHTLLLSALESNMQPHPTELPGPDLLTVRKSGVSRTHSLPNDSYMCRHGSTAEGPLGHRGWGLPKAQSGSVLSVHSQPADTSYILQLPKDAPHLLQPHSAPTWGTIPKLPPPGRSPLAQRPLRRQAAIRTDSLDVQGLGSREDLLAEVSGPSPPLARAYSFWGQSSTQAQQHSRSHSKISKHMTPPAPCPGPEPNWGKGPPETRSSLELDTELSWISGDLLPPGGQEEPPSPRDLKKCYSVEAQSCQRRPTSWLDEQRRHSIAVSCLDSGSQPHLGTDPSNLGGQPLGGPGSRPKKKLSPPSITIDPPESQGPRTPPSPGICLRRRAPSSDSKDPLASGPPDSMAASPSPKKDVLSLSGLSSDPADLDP
In words: Block of α1G T-type channels, patch clamp in HEK cell lines (Example 8). The format is cell-based. As to conditions: 80 mV (inactivation protocol); read-out: Block of α1G T-type Channels IC50, 80 mV. As to the method: Standard patch-clamp techniques were employed to identify blockers of T-type currents. Briefly, previously described HEK cell lines stably expressing human α1G subunits were used for all the recordings (passage #: 4-20, 37° C., 5% CO2). To obtain T-type currents, plastic dishes containing semi-confluent cells were positioned on the stage of a ZEISS AXIOVERT S100 microscope after replacing the culture medium with external solution (see below). Whole-cell patches were obtained using pipettes (borosilicate glass with filament, O.D.: 1.5 mm, I.D.: 0.86 mm, 10 cm length), fabricated on a SUTTER P-97 puller with resistance values of ˜5 MΩ (see below for internal medium).
In the non-inactivating protocol, the holding potential is set at −110 mV and with a pre-pulse at −100 mV for 1 second prior to the test pulse at −40 mV for 50 ms; in the inactivation protocol, the pre-pulse is at approximately −85 mV for 1 second, which inactivates about 15% of the T-type channels, as shown below. [formula]
Test compounds were dissolved in external solution, 0.1-0.01% DMSO. After ˜10 min rest, they were applied by gravity close to the cell using a WPI microfil tubing. The “non-inactivated” pre-pulse was used to examine the resting block of a compound. The “inactivated” protocol was employed to study voltage-dependent block, but the initial data shown below were mainly obtained using the non-inactivated protocol only. IC50 values are shown for various compounds of the invention in Table 5.
Regarding `O=C(CC(c1ccccc1)c1ccccc1)N1CCN(C(c2ccccc2)c2ccc(Cl)cc2Cl)CC1` (stereo not shown) [Compound P29], the IC50 amounted to 4 nM.
Same read-out and setting: the figure for `O=C(CC(c1ccccc1)c1ccccc1)N1CCN(C(c2ccccc2)c2cccc(Cl)c2)CC1` (stereo not shown) [Compound P36] is 55 nM.

Staying with this test, now noted: 100 mV (non-inactivating protocol); read-out: Block of α1G T-type Channels IC50, 100 mV.
As to `O=C(CC(c1ccccc1)c1ccccc1)N1CCN(C(c2ccccc2)c2ccc(Cl)cc2Cl)CC1` (stereo not shown) [Compound P29], the IC50 is 33 nM.

For another test, the system named is P/Q-type channels (α1A+α2δ+β1b cDNA subunits). The experiment in a line: Selectivity patch clamp, P/Q-type channels in HEK 293 (Example 7). The format is cell-based. The conditions noted are these: Tested at 0.1 Hz, 5 mM Ba2+.
Regarding `O=C(CC(c1ccccc1)c1ccccc1)N1CCN(C(c2ccccc2)c2ccc(Cl)cc2Cl)CC1` (stereo not shown) [Compound P29], inhibition was half-maximal at 26000 nM (IC50).
Turning to `O=C(CC(c1ccccc1)c1ccccc1)N1CCN(C(c2ccccc2)c2cccc(Cl)c2)CC1` (stereo not shown) [Compound P36], the IC50 stood at 930 nM.
Consider `CCOC(=O)C1CN(C(c2ccccc2)c2ccccc2)CCN1C(=O)CC(c1ccccc1)c1ccccc1` (stereo not shown) [Compound P5], for which the IC50 worked out at 5000 nM.
The same measure, in the same setting: the same measure for `O=C(CC(c1ccccc1)c1ccccc1)N1CCN(C(c2ccccc2)c2ccc3c(c2)OCO3)CC1` (stereo not shown) [Compound P7]: 6500 nM; for `O=C(CC(c1ccccc1)c1ccccc1)N1CCN(C(c2ccccc2)c2ccc(C(F)(F)F)cc2)CC1` (stereo not shown) [Compound P1]: 970 nM; for `O=C(CC(c1ccccc1)c1ccccc1)N1CCN(C(c2ccccc2)c2cccc(C(F)(F)F)c2)CC1` (stereo not shown) [Compound P2]: 1630 nM.

The test system of a further test is rat formalin model. The experiment in a line: Formalin-induced pain model. The format is in vivo. As to conditions: 30 mg/kg IP, 10 minutes prior to formalin, saline control=100%. As for the experimental part:
The effects of intrathecally delivered compounds of the invention on the rat formalin model were measured. The compounds were reconstituted to stock solutions of approximately 10 mg/ml in propylene glycol. Eight Holtsman male rats of 275-375 g size were randomly selected per test compound.
The following study groups were used, with test compounds, vehicle control (propylene glycol) and saline delivered intraperitoneally (IP):
Prior to initiation of drug delivery baseline behavioral and testing data were taken.
On the morning of testing, a small metal band (0.5 g) was loosely placed around the right hind paw. The rat was placed in a cylindrical Plexiglas chamber for adaptation a minimum of 30 minutes. Test compound or vehicle control was administered 10 minutes prior to formalin injection (50 μl of 5% formalin) into the dorsal surface of the right hindpaw of the rat. The animal was then placed into the chamber of the automated formalin apparatus where movement of the formalin injected paw was monitored and the number of paw flinches tallied by minute over the next 60 minutes. (See Malmberg, A. M., and Yaksh, T. L., Anesthesiology (1993) 79:270-281.)
Results are presented as Maximum Possible Effect±SEM, where saline control=100%.
In the case of `O=C(CC(c1ccccc1)c1ccccc1)N1CCN(C(c2ccccc2)c2ccc(Cl)cc2Cl)CC1` (stereo not shown) [Compound P29], the “Maximum Possible Effect ± SEM, Phase I” value is 78 ± 17%; the “Maximum Possible Effect ± SEM, Phase II” value amounted to 70 ± 10%; the “Maximum Possible Effect ± SEM, Phase IIA” value amounted to 61 ± 9%.
`O=C(CC(c1ccccc1)c1ccccc1)N1CCN(C(c2ccccc2)c2cccc(Cl)c2)CC1` (stereo not shown) [Compound P36]: the “Maximum Possible Effect ± SEM, Phase I” value stood at 62 ± 14%; the “Maximum Possible Effect ± SEM, Phase II” value is recorded as 60 ± 10%; the “Maximum Possible Effect ± SEM, Phase IIA” value was 42 ± 9%.
The corresponding values for `O=C(CC(c1ccccc1)c1ccccc1)N1CCN(C(c2ccccc2)c2ccc3c(c2)OCO3)CC1` (stereo not shown) [Compound P7] are 56 ± 12%, 67 ± 6% and 61 ± 11%.
The corresponding values for `O=C(CC(c1ccccc1)c1ccccc1)N1CCN(C(c2ccccc2)c2cccc(C(F)(F)F)c2)CC1` (stereo not shown) [Compound P2] are 57 ± 14%, 67 ± 10% and 61 ± 11%.
The matching figures for `O=C(CN(c1ccccc1)c1ccccc1)N1CCN(C(c2ccccc2)c2cccc(Cl)c2Cl)CC1` (stereo not shown) [Compound P50]: 60 ± 7%, 63 ± 10% and 63 ± 13%.

For another test, the target named is T3, N-type calcium channels (α1B+α2δ+β1b cDNA subunits) (Rattus norvegicus, UniProt Q02294).
T3 construct: expressed in transfected cells
T3 sequence (Q02294 whole entry): as the sequence (Q02294 whole entry) above
The experiment in a line: Selectivity patch clamp, N-type channels in HEK 293 (Example 7). The format is cell-based. As to conditions: Tested at 0.1 Hz, 5 mM Ba2+.
For the compound `O=C(CC(c1ccccc1)c1ccccc1)N1CCN(C(c2ccccc2)c2ccc(Cl)cc2Cl)CC1` (stereo not shown) [Compound P29], the IC50 was determined as 385 nM.
Turning to `O=C(CC(c1ccccc1)c1ccccc1)N1CCN(C(c2ccccc2)c2cccc(Cl)c2)CC1` (stereo not shown) [Compound P36], the IC50 stood at 206 nM.
In the case of `CCOC(=O)C1CN(C(c2ccccc2)c2ccccc2)CCN1C(=O)CC(c1ccccc1)c1ccccc1` (stereo not shown) [Compound P5], the IC50 turned out to be 73 nM.
Same read-out and setting: the figure for `O=C(CC(c1ccccc1)c1ccccc1)N1CCN(C(c2ccccc2)c2ccc3c(c2)OCO3)CC1` (stereo not shown) [Compound P7] is 101 nM; for `O=C(CC(c1ccccc1)c1ccccc1)N1CCN(C(c2ccccc2)c2ccc(C(F)(F)F)cc2)CC1` (stereo not shown) [Compound P1] it is 190 nM; for `O=C(CC(c1ccccc1)c1ccccc1)N1CCN(C(c2ccccc2)c2cccc(C(F)(F)F)c2)CC1` (stereo not shown) [Compound P2] it is 113 nM.

The record behind these values is patent US20040259866A1, “Calcium channel blockers comprising two benzhydril moieties” (priority 1998, published 2004).
